The record followed here is patent US12441733B2, “Substituted 2,4-dioxotetrahydropyrimidines as intermediates in the synthesis of bruton's tyrosine kinase inhibitors” (Novartis AG, priority 2018, dated 2025).

What all share (assay type): cell-based
One assay has as its target T1, BTK-GFP (Homo sapiens, UniProt Q06187+Q96SW2).
T1 construct: expressed in transfected cells; host or cells: HEK293A (Invitrogen R70507), lentiviral transduction with pLenti6-BTK-GFP-Ires-RFP, blasticidin selection
Nature of the assay: BTK-GFP protein abundance flow cytometry assay in HEK293A cells. As to conditions: HEK293A BTK-GFP-iresRFP cells, 24 h; for DC50: GFP signal by flow cytometry, concentration at which 50% maximal degradation was observed; for BTK deg Amax: % protein remaining at the concentration at which maximum degradation is seen. An outline of the steps: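 HEK293A cells stably expressing bicistronic BTK-GFP-IRES-RFP (C-terminal GFP tag) via lentiviral vector. Degradation read by flow cytometry as loss of GFP signal after degrader treatment. DC50 is concentration giving 50% maximal degradation; Amax is % protein remaining at maximal degradation.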
On the technique in general: A flow cytometer gives signals particle by particle.

Another assay deals with TMD8 cells. The assay can be described thus: Resazurin cell viability (proliferation) assay in TMD8 DLBCL cells. The note with it: TMD8 cells (BTK dependent), 72 h, 50% growth inhibition vs vehicle, read-out: TMD8 Prol GI50. An outline of the steps: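 TMD8 cells were seeded at 1×10^4 per well and treated 3 h later with compound, in an 8-point 1:4 dilution series starting at 1 μM, or DMSO, for 72 h at 37° C. Resazurin was added at 13 μg/ml final for the last 2 h, and fluorescence was read at ex 530/em 600 nm. GI50 versus vehicle was derived by curve fitting from triplicates.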
A general note: The colour change of resazurin is a common sign of viable cells or microbes.

In the next assay the test system is OCI-LY3 cells. Nature of the assay: Resazurin cell viability (proliferation) assay in OCI-LY3 DLBCL cells. The note with it: OCI-LY3 cells (BTK independent), 72 h, 50% growth inhibition vs vehicle, read-out: OCI-LY3 Prol GI50. The procedure, abridged: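 Cells were seeded at 1×10^4 per well and dosed 3 h later: 8-point 1:4 dilutions from 10 μM (OCI-LY3), in triplicate, 72 h at 37 °C. Resazurin (13 μg/ml final) was added for the last 2 h and fluorescence read at 530/600 nm. GI50 is relative to DMSO vehicle, typically from ≥2 independent experiments.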

Like-named read-outs stand apart in the source and are kept apart here.

T1 sequence (Q06187 whole entry): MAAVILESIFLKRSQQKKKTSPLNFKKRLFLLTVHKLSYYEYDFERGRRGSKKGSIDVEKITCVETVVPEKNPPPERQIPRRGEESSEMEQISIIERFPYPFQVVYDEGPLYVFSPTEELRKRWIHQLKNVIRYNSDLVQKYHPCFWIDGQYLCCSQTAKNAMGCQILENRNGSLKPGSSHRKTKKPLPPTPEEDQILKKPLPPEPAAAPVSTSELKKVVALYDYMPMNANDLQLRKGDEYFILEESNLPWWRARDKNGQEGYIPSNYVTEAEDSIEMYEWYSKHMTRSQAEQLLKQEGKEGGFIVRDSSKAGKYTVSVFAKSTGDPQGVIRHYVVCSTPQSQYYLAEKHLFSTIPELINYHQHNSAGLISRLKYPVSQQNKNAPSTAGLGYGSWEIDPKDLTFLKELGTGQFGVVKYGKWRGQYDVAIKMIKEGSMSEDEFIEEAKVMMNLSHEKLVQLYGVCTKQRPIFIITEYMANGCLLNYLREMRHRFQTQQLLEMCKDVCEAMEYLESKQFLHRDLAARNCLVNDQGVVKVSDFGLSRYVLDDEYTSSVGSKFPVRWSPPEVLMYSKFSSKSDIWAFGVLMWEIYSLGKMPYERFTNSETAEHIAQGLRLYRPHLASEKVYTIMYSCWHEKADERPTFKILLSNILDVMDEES
T1 sequence (Q96SW2 whole entry): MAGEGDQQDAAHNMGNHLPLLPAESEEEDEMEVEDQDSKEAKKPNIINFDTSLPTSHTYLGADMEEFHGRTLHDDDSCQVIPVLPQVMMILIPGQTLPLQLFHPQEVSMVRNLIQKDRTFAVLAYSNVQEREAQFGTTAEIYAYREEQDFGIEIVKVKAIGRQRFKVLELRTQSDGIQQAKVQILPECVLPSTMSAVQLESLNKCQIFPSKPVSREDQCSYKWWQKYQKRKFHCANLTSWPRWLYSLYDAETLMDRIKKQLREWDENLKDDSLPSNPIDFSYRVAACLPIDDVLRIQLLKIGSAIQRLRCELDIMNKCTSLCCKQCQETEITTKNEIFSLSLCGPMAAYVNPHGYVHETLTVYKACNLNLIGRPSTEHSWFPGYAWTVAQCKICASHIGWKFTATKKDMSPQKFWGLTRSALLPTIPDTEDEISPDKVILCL
T1 sequence (Q16531 whole entry partner): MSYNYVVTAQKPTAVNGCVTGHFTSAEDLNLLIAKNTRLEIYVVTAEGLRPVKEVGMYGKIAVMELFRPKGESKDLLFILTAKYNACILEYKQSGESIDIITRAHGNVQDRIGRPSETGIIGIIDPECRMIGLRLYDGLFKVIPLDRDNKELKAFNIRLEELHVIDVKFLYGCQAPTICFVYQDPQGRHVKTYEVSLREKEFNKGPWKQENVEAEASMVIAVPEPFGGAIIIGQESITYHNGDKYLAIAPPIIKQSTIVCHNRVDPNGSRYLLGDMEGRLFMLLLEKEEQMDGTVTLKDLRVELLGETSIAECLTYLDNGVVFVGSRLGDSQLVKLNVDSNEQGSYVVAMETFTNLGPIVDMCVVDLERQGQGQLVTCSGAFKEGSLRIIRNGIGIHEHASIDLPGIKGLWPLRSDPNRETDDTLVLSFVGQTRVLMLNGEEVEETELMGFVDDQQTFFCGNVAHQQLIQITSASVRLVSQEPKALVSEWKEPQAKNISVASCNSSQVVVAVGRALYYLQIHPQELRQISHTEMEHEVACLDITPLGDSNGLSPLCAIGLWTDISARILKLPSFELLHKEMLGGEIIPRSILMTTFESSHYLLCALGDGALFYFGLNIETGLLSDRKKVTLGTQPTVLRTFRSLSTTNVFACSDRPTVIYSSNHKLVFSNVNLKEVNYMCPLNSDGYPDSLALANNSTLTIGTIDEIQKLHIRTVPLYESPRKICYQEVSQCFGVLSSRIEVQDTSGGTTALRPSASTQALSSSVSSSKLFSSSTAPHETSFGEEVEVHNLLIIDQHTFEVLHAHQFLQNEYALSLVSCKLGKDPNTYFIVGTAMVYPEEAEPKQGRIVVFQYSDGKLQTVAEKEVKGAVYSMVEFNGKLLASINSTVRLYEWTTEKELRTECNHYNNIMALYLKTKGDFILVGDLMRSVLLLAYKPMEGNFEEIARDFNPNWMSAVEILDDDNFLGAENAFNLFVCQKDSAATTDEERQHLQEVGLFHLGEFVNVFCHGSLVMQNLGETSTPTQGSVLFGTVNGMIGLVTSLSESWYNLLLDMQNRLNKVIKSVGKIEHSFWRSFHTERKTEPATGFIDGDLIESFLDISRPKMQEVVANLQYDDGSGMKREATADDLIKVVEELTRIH

In the case of `Cc1c(NC(=O)c2ccc(C(C)(C)O)cc2F)cc(F)cc1-c1ncnc2[nH]c(-c3ccc(CNCCCCCN(C)C(=O)c4ccc(Cl)c(N5CCC(=O)NC5=O)c4)cc3)cc12` [Compound 42, 4-chloro-3-(2,4-dioxotetrahydropyrimidin-1(2H)-yl)-N-(5-((4-(4-(5-fluoro-3-(2-fluoro-4-(2-hydroxypropan-2-yl)benzamido)-2-methylphenyl)-7H-pyrrolo[2,3-d]pyrimidin-6-yl)benzyl)amino)pentyl)-N-methylbenzamide], at BTK-GFP, the DC50 (usually the concentration at which degradation of the target reaches its halfway point) worked out at 0.0595 µM. Moreover, the “BTK deg Amax” value at BTK-GFP was determined as 8.8%. The GI50 (in general, the concentration that inhibits growth by half) in the assay on TMD8 cells (Homo sapiens) came to 0.00534 µM; with OCI-LY3 cells (Homo sapiens) it was 8.92 µM.

In turn, `COc1ccc(C(=O)N2CCC(CCN3CCC(COc4ccc(-c5cc6c(-c7cc(F)cc(NC(=O)c8ccc(C(C)(C)O)cc8F)c7C)ncnc6[nH]5)cc4)CC3)CC2)cc1N1CCC(=O)NC1=O` [Compound 43, N-(3-(6-(4-((1-(2-(1-(3-(2,4-dioxotetrahydropyrimidin-1(2H)-yl)-4-methoxybenzoyl)piperidin-4-yl)ethyl)piperidin-4-yl)methoxy)phenyl)-7H-pyrrolo[2,3-d]pyrimidin-4-yl)-5-fluoro-2-methylphenyl)-2-fluoro-4-(2-hydroxypropan-2-yl)benzamide] came in with a DC50 at BTK-GFP of 0.001 µM. The “BTK deg Amax” value at BTK-GFP was determined as 2.3%. The GI50 in the assay on TMD8 cells (Homo sapiens) was 0.00068 µM; in the assay with OCI-LY3 cells (Homo sapiens), 3.34 µM.

For `COc1ccc(C(=O)N2CCN(CCNCCCOCc3ccc(-c4cc5c(-c6cc(F)cc(NC(=O)c7ccc(C(C)(C)O)cc7F)c6C)ncnc5[nH]4)cc3)CC2)cc1N1CCC(=O)NC1=O` [Compound 45, N-(3-(6-(4-((3-((2-(4-(3-(2,4-dioxotetrahydropyrimidin-1(2H)-yl)-4-methoxybenzoyl)piperazin-1-yl)ethyl)amino)propoxy)methyl)phenyl)-7H-pyrrolo[2,3-d]pyrimidin-4-yl)-5-fluoro-2-methylphenyl)-2-fluoro-4-(2-hydroxypropan-2-yl)benzamide], at BTK-GFP, the DC50 was 0.284 µM. Besides, the “BTK deg Amax” value at BTK-GFP stood at 3.2%. The GI50 in the assay with TMD8 cells (Homo sapiens) is 0.0191 µM; in the assay with OCI-LY3 cells (Homo sapiens), over 10 µM.

As for `COc1ccc(C(=O)N2CCC(O[C@H]3CC[C@H](Oc4ccc(-c5cc6c(-c7cc(F)cc(NC(=O)c8ccc(C(C)(C)O)cc8F)c7C)ncnc6[nH]5)cc4)CC3)CC2)cc1N1CCC(=O)NC1=O` [Compound 46, N-(3-(6-(4-(((1r,4r)-4-((1-(3-(2,4-dioxotetrahydropyrimidin-1(2H)-yl)-4-methoxybenzoyl)piperidin-4-yl)oxy)cyclohexyl)oxy)phenyl)-7H-pyrrolo[2,3-d]pyrimidin-4-yl)-5-fluoro-2-methylphenyl)-2-fluoro-4-(2-hydroxypropan-2-yl)benzamide], on BTK-GFP, the DC50 turned out to be 0.0017 µM and the “BTK deg Amax” value turned out to be 3.6%. For the same molecule, in the assay on TMD8 cells, the GI50 was determined as 0.00359 µM. The GI50 with OCI-LY3 cells is over 10 µM.

As for `Cc1c(NC(=O)c2ccc(C(C)(C)O)cc2F)cc(F)cc1-c1ncnc2[nH]c(-c3ccc(CN4CCC5(CC4)CN(CCCNC(=O)c4ccc(Cl)c(N6CCC(=O)NC6=O)c4)CCO5)cc3)cc12` [Compound 48, N-(3-(6-(4-((4-(3-(4-chloro-3-(2,4-dioxotetrahydropyrimidin-1(2H)-yl)benzamido)propyl)-1-oxa-4,9-diazaspiro[5.5]undecan-9-yl)methyl)phenyl)-7H-pyrrolo[2,3-d]pyrimidin-4-yl)-5-fluoro-2-methylphenyl)-2-fluoro-4-(2-hydroxypropan-2-yl)benzamide], on BTK-GFP, it took 0.0208 µM to reach half-maximal degradation (DC50) and the “BTK deg Amax” value turned out to be 9.4%. Besides, the concentration for 50% growth inhibition (GI50) in the assay with TMD8 cells (Homo sapiens) came to 0.00223 µM. Besides, the GI50 in the assay with OCI-LY3 cells (Homo sapiens) worked out at 3.6 µM.

`COc1ccc(C(=O)N2CCC3(CCN(Cc4ccc(-c5cc6c(-c7cc(F)cc(NC(=O)c8ccc(C(C)(C)O)cc8F)c7C)ncnc6[nH]5)cc4)C3)CC2)cc1N1CCC(=O)NC1=O` [Compound 49, N-(3-(6-(4-((8-(3-(2,4-dioxotetrahydropyrimidin-1(2H)-yl)-4-methoxybenzoyl)-2,8-diazaspiro[4.5]decan-2-yl)methyl)phenyl)-7H-pyrrolo[2,3-d]pyrimidin-4-yl)-5-fluoro-2-methylphenyl)-2-fluoro-4-(2-hydroxypropan-2-yl)benzamide]: on BTK-GFP, it took 0.0703 µM to reach half-maximal degradation (DC50) and the “BTK deg Amax” value is on record as 49.4%. Besides, in the assay with TMD8 cells (Homo sapiens), the GI50 was found to be 0.00535 µM. For the same molecule, the GI50 in the assay on OCI-LY3 cells (Homo sapiens) came to 4.84 µM.

As to `Cc1ccc(C(=O)N2CCC(OC3CCN(Cc4ccc(-c5cc6c(-c7cc(F)cc(NC(=O)c8ccc(C(C)(C)O)cc8F)c7C)ncnc6[nH]5)cc4)CC3)CC2)cc1N1CCC(=O)NC1=O` [Compound 50, N-(3-(6-(4-((4-((1-(3-(2,4-dioxotetrahydropyrimidin-1(2H)-yl)-4-methylbenzoyl)piperidin-4-yl)oxy)piperidin-1-yl)methyl)phenyl)-7H-pyrrolo[2,3-d]pyrimidin-4-yl)-5-fluoro-2-methylphenyl)-2-fluoro-4-(2-hydroxypropan-2-yl)benzamide], at BTK-GFP, the DC50 was 0.0012 µM and the “BTK deg Amax” value amounted to 4.1%. In the assay on TMD8 cells (Homo sapiens), the GI50 was 0.00066 µM. In addition, the GI50 with OCI-LY3 cells (Homo sapiens) came to 7.77 µM.

Turning to `COc1ccc(C(=O)N2CCN(CCN3CCC(COc4ccc(-c5cc6c(-c7cc(F)cc(NC(=O)c8ccc(C(C)(C)O)cc8F)c7C)ncnc6[nH]5)cc4)CC3)CC2)cc1N1CCC(=O)NC1=O` [Compound 51, N-(3-(6-(4-((1-(2-(4-(3-(2,4-dioxotetrahydropyrimidin-1(2H)-yl)-4-methoxybenzoyl)piperazin-1-yl)ethyl)piperidin-4-yl)methoxy)phenyl)-7H-pyrrolo[2,3-d]pyrimidin-4-yl)-5-fluoro-2-methylphenyl)-2-fluoro-4-(2-hydroxypropan-2-yl)benzamide], on BTK-GFP, the DC50 came to 0.0008 µM and the “BTK deg Amax” value worked out at 3.9%. In addition, in the assay on TMD8 cells (Homo sapiens), the GI50 came out at 0.00058 µM. Moreover, in the assay on OCI-LY3 cells (Homo sapiens), the GI50 amounted to 4.37 µM.

With `COc1ccc(C(=O)NCCN2CC3(CCN(Cc4ccc(-c5cc6c(-c7cc(F)cc(NC(=O)c8ccc(C(C)(C)O)cc8F)c7C)ncnc6[nH]5)cc4)CC3)C2)cc1N1CCC(=O)NC1=O` [Compound 52, N-(3-(6-(4-((2-(2-(3-(2,4-dioxotetrahydropyrimidin-1(2H)-yl)-4-methoxybenzamido)ethyl)-2,7-diazaspiro[3.5]nonan-7-yl)methyl)phenyl)-7H-pyrrolo[2,3-d]pyrimidin-4-yl)-5-fluoro-2-methylphenyl)-2-fluoro-4-(2-hydroxypropan-2-yl)benzamide], at BTK-GFP, half-maximal degradation (DC50) was put at 2.58 µM and the “BTK deg Amax” value was found to be 43.7%. The GI50 in the assay with TMD8 cells (Homo sapiens) was 0.0227 µM. For the same molecule, the concentration for 50% growth inhibition (GI50) with OCI-LY3 cells (Homo sapiens) was over 10 µM.

In the case of `COc1ccc(C(=O)NCCN2CCC3(CCN(Cc4ccc(-c5cc6c(-c7cc(F)cc(NC(=O)c8ccc(C(C)(C)O)cc8F)c7C)ncnc6[nH]5)cc4)CC3)C2)cc1N1CCC(=O)NC1=O` [Compound 53, N-(3-(6-(4-((2-(2-(3-(2,4-dioxotetrahydropyrimidin-1(2H)-yl)-4-methoxybenzamido)ethyl)-2,8-diazaspiro[4.5]decan-8-yl)methyl)phenyl)-7H-pyrrolo[2,3-d]pyrimidin-4-yl)-5-fluoro-2-methylphenyl)-2-fluoro-4-(2-hydroxypropan-2-yl)benzamide], on BTK-GFP, it took 0.15 µM to reach half-maximal degradation (DC50) and the “BTK deg Amax” value was 17.4%. The GI50 in the assay on TMD8 cells (Homo sapiens) is 0.00314 µM. For the same molecule, the GI50 in the assay on OCI-LY3 cells (Homo sapiens) was over 10 µM.

`COc1ccc(C(=O)N2CCC(O[C@H]3CC[C@@H](Oc4ccc(-c5cc6c(-c7cc(F)cc(NC(=O)c8ccc(C(C)(C)O)cc8F)c7C)ncnc6[nH]5)cc4)CC3)CC2)cc1N1CCC(=O)NC1=O` [Compound 54, N-(3-(6-(4-(((1s,4s)-4-((1-(3-(2,4-dioxotetrahydropyrimidin-1(2H)-yl)-4-methoxybenzoyl)piperidin-4-yl)oxy)cyclohexyl)oxy)phenyl)-7H-pyrrolo[2,3-d]pyrimidin-4-yl)-5-fluoro-2-methylphenyl)-2-fluoro-4-(2-hydroxypropan-2-yl)benzamide] gave a DC50 at BTK-GFP of 0.0015 µM. In addition, the “BTK deg Amax” value on BTK-GFP is reported as 4.4%. The GI50 in the assay on TMD8 cells is 0.00356 µM; in the assay on OCI-LY3 cells it was over 10 µM.

Consider `COc1ccc(C(=O)N2CCC3(CCN(Cc4ccc(-c5cc6c(-c7cc(F)cc(NC(=O)c8ccc(C(C)(C)O)cc8F)c7C)ncnc6[nH]5)cc4)CC3)C2)cc1N1CCC(=O)NC1=O` [Compound 55, N-(3-(6-(4-((2-(3-(2,4-dioxotetrahydropyrimidin-1(2H)-yl)-4-methoxybenzoyl)-2,8-diazaspiro[4.5]decan-8-yl)methyl)phenyl)-7H-pyrrolo[2,3-d]pyrimidin-4-yl)-5-fluoro-2-methylphenyl)-2-fluoro-4-(2-hydroxypropan-2-yl)benzamide], for which, on BTK-GFP, the DC50 is over 0.123 µM and the “BTK deg Amax” value stood at 53.8%. In the assay on TMD8 cells (Homo sapiens), the GI50 is 0.00701 µM. For the same molecule, the GI50 in the assay on OCI-LY3 cells (Homo sapiens) turned out to be 7.94 µM.
